According to PubChem BioAssay AID449762 (Southern Research Specialized Biocontainment Screening …, 2010):
Inconclusive results are not listed.

System: M. tuberculosis H37Rv growth inhibition, 7H9 media
Test: M. tuberculosis growth inhibition, HTS (AID 449762);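 further: bacterial growth assessed after seven days of incubation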
Conditions: for IC90: measured here: IC90 growth inhibition

CCc1ccc(NCc2ccc(OC)c(Cn3ccnc3)c2)cc1
IC50: 21.5 µM
IC90: 23.9 µM

CCOc1ccc(NC(=O)CSc2cn[nH]n2)cc1
IC50: 57.1 µM
IC90: > 100 µM

C=CCOc1ccc(C2=NOC(C(=O)Nc3ccc4c(c3)OCCO4)C2)cc1 (stereo unspecified)
IC50: 12.8 µM
IC90: 23.1 µM

CCCCOc1ccc(-c2nnn(C(C)C(=O)OCC)n2)cc1 (stereo unspecified)
IC50: 0.75 µM
IC90: 5.42 µM

CCCCCCSc1nsc(NC(=O)CC(C)C)n1
IC90: > 100 µM

CCO[C@H]1OC(C(=O)NCc2nc3ccccc3[nH]2)=C[C@@H](c2csc3ccccc23)[C@@H]1CCCO
IC50: 44.8 µM
IC90: 50.5 µM

CCN(CC)C(=S)SSC(=S)N(CC)CC
IC50: 0.78 µM
IC90: 1.53 µM

O=C1NCC(c2ccccc2)C1C(=O)N/N=C\c1ccc(-c2ccc(Cl)c(Cl)c2)o1 (stereo unspecified)
IC50: 91 µM
IC90: > 100 µM

CCCCCCCCNC(C)C(O)c1ccc(SC(C)C)cc1 (stereo unspecified)
IC50: 22.5 µM
IC90: 31.8 µM

CC1Cc2ccccc2N1C(=S)NC(=O)c1ccc(Cl)cc1Cl (stereo unspecified)
IC50: 7.13 µM
IC90: > 100 µM

O=C(COc1cccc(Oc2ccccc2)c1)Nc1ncccn1
IC50: 37.7 µM
IC90: > 100 µM

COc1cc2c(C(=O)N3CCN(c4cccc(Cl)c4)CC3)cn(CC(C)C)c(=O)c2cc1OC
IC50: 47.7 µM
IC90: 53.9 µM

CC1=NOC(=O)/C1=C/c1ccc(-c2ccc(Cl)cc2)o1
IC50: 5.22 µM
IC90: 70.3 µM

Oc1[nH]c2ccccc2c1N=NC(=S)N1CCOCC1
IC50: 12.3 µM
IC90: 13.9 µM

Cc1ccnc(NC(=O)c2cc3ccccc3o2)c1
IC50: 43.9 µM
IC90: > 100 µM

NC(=S)NNc1ccc(Cl)c(Cl)c1
IC50: 5.81 µM
IC90: 9.42 µM

C/C(=N\Nc1nc2c(s1)CCCC2)c1ccccc1
IC50: 18.6 µM
IC90: 34.4 µM

COc1ccc(-c2nc(NC(=O)Cn3ccc(C(F)(F)F)n3)sc2C)cc1
IC50: < 0.2 µM
IC90: 2.92 µM

COc1ccc(/C=N/Nc2cc(N3CCCC3)nc(N3CCCC3)n2)cc1
IC50: 16.3 µM
IC90: 25 µM

CC(NC(=O)c1ccccc1Br)C1CC2CCC1C2 (stereo unspecified)
IC50: 21 µM
IC90: > 100 µM

CCCCNc1nc(N(C)c2ccccc2)nc(-n2ccnc2)n1
IC50: 10.8 µM
IC90: > 25 µM

Cc1cc(C)c2oc(-c3ccc(C)c(NC(=S)NC(=O)/C=C/c4ccco4)c3)nc2c1
IC50: 59.8 µM
IC90: > 100 µM

CCOC(=O)C1CCCN(c2ncnc3c2cnn3-c2ccc(OC)cc2)C1 (stereo unspecified)
IC50: 2.3 µM
IC90: 10.7 µM

CS(=O)(=O)c1nc(-c2ccccc2)cc(C(F)(F)F)n1
IC50: 6.68 µM
IC90: 18.7 µM

Cc1cc(/C=N\NC(=O)c2cccs2)c(C)n1-c1ccc2ncccc2c1
IC50: 12.1 µM
IC90: 31.7 µM

CCCCOc1ccc(C(=O)N/N=C/c2ccc(OCCN3CCCCC3)c(OC)c2)cc1
IC50: 28.8 µM
IC90: 44.6 µM

O=C(CN1CCC(n2nnc3cc(C(F)(F)F)ccc32)CC1)NCc1cccs1
IC50: 37.5 µM
IC90: 47.8 µM

CN1CCN(c2c(F)cc3c(=O)c(C(=O)O)cn4c3c2OCN4C)CC1
IC50: 0.72 µM
IC90: 0.8 µM

Cc1ccc(OC/C(O)=C(\C#N)c2nc3ccccc3s2)cc1
IC50: 20.7 µM
IC90: 34 µM

COc1ccc(-c2cc3c(=O)n(CC(=O)NCCCN4CCC(Cc5ccccc5)CC4)ncn3n2)cc1
IC50: 23.7 µM
IC90: 26.2 µM

CNC(C)C#Cc1ccc2oc3cc(C)c(C)cc3c(=O)c2c1 (stereo unspecified)
IC50: 4.55 µM
IC90: 17.9 µM

CC(C)Oc1ccc(C(=O)N/N=C/c2ccc(-c3ccc(S(=O)(=O)Nc4ncccn4)cc3)o2)cc1
IC50: 19.2 µM
IC90: 37.4 µM

Cc1nonc1OCCNCCNc1ccc([N+](=O)[O-])c2cccnc12
IC50: 6.68 µM
IC90: 13.9 µM

CCOC(=O)N1CCc2c(sc(NC(=O)c3ccc(Cl)s3)c2C(N)=O)C1
IC50: 6.17 µM
IC90: 20.5 µM

Nc1ccc(N=Nc2ccccc2)c2cccnc12
IC50: 10.9 µM
IC90: 49.5 µM

CN1C(C(=O)NCc2ccc(OC(F)(F)F)cc2)CC2Cn3c(nc4cc(Cl)c(Cl)cc43)C21 (stereo unspecified)
IC50: 39.8 µM
IC90: 55.6 µM

CC1CCCC(NC(=O)NC(=O)CCl)C1C (stereo unspecified)
IC50: 3.25 µM
IC90: 7.38 µM

O=C(/C=C/c1ccc(O)c([N+](=O)[O-])c1)c1ccc2ccccc2c1
IC50: 9.26 µM
IC90: 25.6 µM

Cc1ccc2[nH]c3c(c2c1)CN(C(=O)CN1CCN(c2ccccn2)CC1)CC3
IC90: > 100 µM

COc1ccccc1-c1cc(C(=O)NC2CCN(C)CC2)c2ccc(Cl)c(C)c2n1
IC50: 70.9 µM
IC90: 95 µM

O=C(c1cc2nc(-c3ccc(F)cc3)cc(C(F)(F)F)n2n1)N1CCCCC1c1cccnc1 (stereo unspecified)
IC50: 14 µM
IC90: 31.4 µM

Cc1sc2nc(CN(C(=O)NC3CCCCC3)C3CCCC3)[nH]c(=O)c2c1C
IC50: 30.5 µM
IC90: > 100 µM

NC(=O)c1ccc(N=Cc2ccc([N+](=O)[O-])s2)cc1
IC50: 12.6 µM
IC90: 13.6 µM

CSCCC1NC(=O)N(CC(=O)N2N=C(c3ccc(Cl)cc3)CC2c2ccco2)C1=O (stereo unspecified)
IC50: 10.5 µM
IC90: 16 µM

CCOc1ccc(-c2csc(/C(C#N)=C\c3ccc(O)c([N+](=O)[O-])c3)n2)cc1
IC50: 11.1 µM
IC90: > 100 µM

COc1cc2nc(Nc3ccc(C)c(Cl)c3)nc(N)c2cc1OC
IC50: 33.2 µM
IC90: 98.8 µM

Cc1cccc(C2=N/C(=C\c3cccs3)C(=O)O2)c1
IC50: 2.68 µM
IC90: 15.5 µM

CCOC(=O)c1sc(NC(=O)CN2C(=O)NC3(CC(C)CC(C)(C)C3)C2=O)cc1C (stereo unspecified)
IC50: 21.4 µM
IC90: 40.3 µM

C[C@@H]1CCCCCCCCC(=O)OCCN[C@H](C)CCCCCCCCC(=O)OCCN[C@H](C)CCCCCCCCC(=O)OCCN1
IC50: 25.2 µM
IC90: 29.4 µM

CCN(CCNCC(O)COc1ccccc1C(C)C)c1cccc(C)c1 (stereo unspecified)
IC50: 21.1 µM
IC90: 28.1 µM

C/C=C(\C)C(=O)Nc1cccc(C2=NOC3(C2)C[C@H](C(N)=O)N(C(=O)c2cc([N+](=O)[O-])cc([N+](=O)[O-])c2)C3)c1 (stereo partly specified)
IC50: 1.34 µM
IC90: 3.37 µM

COC(=O)N/N=C/c1c[n+]([O-])c2ccccc2[n+]1[O-]
IC50: 13.2 µM
IC90: 31.7 µM

CC12CCC(=O)N1C(C(=O)Nc1ccc(SC(F)F)cc1)CS2 (stereo unspecified)
IC50: 30.2 µM
IC90: 63.1 µM

O=C(CN1CCN(c2nc(-c3ccc(F)cc3)cs2)CC1)NCc1ccc2c(c1)OCO2
IC50: 42.6 µM
IC90: 55.8 µM

CC(CC(=O)Nc1ccc(Cl)c([N+](=O)[O-])c1)c1ccccc1 (stereo unspecified)
IC50: 16 µM
IC90: 40.7 µM

CN(CCCC1CCCC1)C(=O)CCc1nnc(-c2ccccc2)o1
IC50: 7.31 µM
IC90: 20.1 µM

Clc1ccc(NNc2ccnc3cc(Cl)ccc23)cc1
IC50: 16.8 µM
IC90: 21.5 µM

CCN(CC)c1ccc2nc3ccccc3[n+](CC)c2c1
IC50: 2.71 µM
IC90: 5.66 µM

Cc1ccc(NC(=O)C2C3/C=C\CCCCC32)cc1C (stereo unspecified)
IC50: 2.87 µM
IC90: 3.29 µM

O=[N+]([O-])c1c(C(Cl)Cl)nn(-c2ccc(Cl)cc2)c1N1CCCCC1
IC50: 15.6 µM
IC90: 19.4 µM

CC(C)(C)c1csc(NC(=O)c2c(F)c(F)c(F)c(F)c2F)n1
IC50: 17.7 µM
IC90: 25.2 µM

C/C(=N\Nc1ccc(Cl)c(Cl)c1)c1ccc(-n2ccnc2)cc1
IC50: 65.8 µM
IC90: 86.4 µM

CCOC(=O)N1CCC(n2c(SCC(=O)OCc3ccccc3)nc3ccsc3c2=O)CC1
IC50: 27.1 µM
IC90: > 100 µM

CCOC(=O)CSc1nn(-c2ccccc2)c(=S)s1
IC50: 4.75 µM
IC90: 9.22 µM

O=c1cc(N=Nc2ccc(Cl)cc2)[nH]c(=O)[nH]1
IC50: 42 µM
IC90: > 100 µM

O=C(CCl)N1CCCC1c1ccc2c(c1)OCCO2 (stereo unspecified)
IC50: 3.45 µM
IC90: 9.07 µM

Cc1cnc(NC(=O)NCC2CCCC(CNC(=O)Nc3ncc(C)s3)C2)s1 (stereo unspecified)
IC50: 24.8 µM
IC90: 28.2 µM

Cc1cc(N2CCC(C)CC2)nc(-n2nc(C)cc2C)n1
IC50: < 0.2 µM
IC90: 5.47 µM

Cc1c(NC(=O)c2ccc([N+](=O)[O-])o2)cccc1-c1nc2ncccc2o1
IC50: 8.36 µM
IC90: > 25 µM

c1ccc(CCN2CCN(c3ncnc4c3cnn4-c3ccccc3)CC2)cc1
IC50: 21.3 µM
IC90: 43 µM

CN(C)c1ccc(-c2cc(O)c3ncccc3c2)cc1
IC50: 2.55 µM
IC90: 4.17 µM

Cc1ccccc1Cn1ccc(=NCc2ccccc2)cc1
IC50: 4.39 µM
IC90: 12 µM

O=C(NC1CCN(Cc2ccccc2)CC1)c1cccc(S(=O)(=O)Nc2ccc(SC(F)F)cc2)c1
IC50: 15.5 µM
IC90: 21.9 µM

O=C(OCc1nc2ccccc2s1)c1ccc(Br)o1
IC50: 18.9 µM
IC90: > 100 µM

Cc1ccc2[nH]c(C(=O)NN=C3CCCCC3)c(-c3ccccc3)c2c1
IC50: 29 µM
IC90: 56.6 µM

Cc1cccc(C(=O)OCC(=O)N2CCc3ccccc3C2)c1O
IC50: 46.3 µM
IC90: > 100 µM

c1ccc(-c2nccc(-c3ccc(-n4cnc5ccccc54)cc3)n2)nc1
IC50: 11 µM
IC90: 16.5 µM

Cc1ccc(CN2CCN(/N=C/c3ccc(Cl)c([N+](=O)[O-])c3)CC2)cc1
IC50: 22.7 µM
IC90: 36.5 µM

CC1(C)Cc2c(sc(NC(=O)c3ccc(C(=O)c4ccccc4)cc3)c2C(N)=O)C(C)(C)N1
IC50: 22.5 µM
IC90: > 100 µM

COc1ccccc1Nc1nc(N)nc(CCl)n1
IC50: 1.67 µM
IC90: 8.82 µM

CCCNC1=C(N(C(C)=O)c2cccc(F)c2)C(=O)c2ccccc2C1=O
IC50: 11.4 µM
IC90: 20.1 µM

N#CC(C(=O)NCc1ccco1)c1nc2ccccc2nc1N1CCOCC1 (stereo unspecified)
IC50: 43 µM
IC90: 45.2 µM

Cc1cc2cc(CNC(=O)NC3CCCCC3)ccc2[nH]1
IC50: 23.3 µM
IC90: 50.9 µM

Nc1nc2ccccc2n1/N=C/c1ccc(Br)cc1
IC50: 12.2 µM
IC90: > 25 µM

COc1ccc(C2=NC(=O)/C(=C\c3cc(OC)c(OC)c(OC)c3)O2)cc1
IC50: 5.71 µM
IC90: 49.3 µM

CCn1c2ccccc2c2cc(CNCc3ccc(OC)cc3OC)ccc21
IC50: 12.2 µM
IC90: 14.1 µM

Cc1nn(C(C)(C)C)c(NC(=O)c2ccc(Cl)cc2Cl)c1Br
IC50: 2.97 µM
IC90: > 100 µM

C/C(=N/Nc1cc(-c2ccccc2)nc(-c2ccccc2)n1)c1ccc(O)cc1
IC50: 9.45 µM
IC90: 13.8 µM

CC(=O)N1CCN(c2ccc(OC[C@H]3CO[C@](Cn4ccnc4)(c4ccc(Cl)cc4Cl)O3)cc2)CC1
IC50: 17.5 µM
IC90: 25.2 µM
